Data: patent US20230399378A1, “PEPTIDE-BASED DELIVERY OF AGENTS” (THE FLOREY INSTITUTE OF NEUROSCIENCE AND MENTAL HEALTH, priority 2020, published 2023)

Legend:
[1] = test system: fibroblasts; experiment: Viability of fibroblasts by MTS assay (cytotoxicity); assay type: cell-based, human
Procedure: FIG. 5. Effect of the endosomal escape domain HA2 and lipidation of peptide-PMO conjugates on the viability of fibroblasts determined using MTS assay. UT, untreated control.
The peptide-PMO conjugates were tested up to 10 μM which is 10-fold greater than the concentration needed to achieve a high level of activity.

[2] = test system: SMN2; experiment: SMN2 splice-switching for exon 7 inclusion by RT-qPCR in SMA Type I patient-derived fibroblasts (Example 2); assay type: cell-based, human; settings: for level of exon-7 inclusion activity (full length SMN2/HPRT1, normalised to untreated control set to 1): treated 4 hrs, then 20 hrs growth medium, mean±SEM
From the text: FIG. 3. (A) SMN2 pre-mRNA exon-7 skipping and production of 80-90% SMN2Δ7 mRNA transcripts. Peptide-PMO binding to Intron-splicing silencer (ISS-N1) and restoration of SMN2 splicing and production of full-length SMN2 mRNA transcripts. The positions of forward and reverse primers highlighted on full-length mRNA. (B)-(C) Effect of administration of peptides linked to PMO for SMN2 exon 7 inclusion, measured as change in the level of full length SMN2/HPRT1 in SMA patient-derived fibroblasts, each at two concentrations, 0.5 μM and 1 μM (or 1 μM and 5 μM in the case of PMO alone). UT, untreated. (B) For PMO constructs, from left to right: PMO; ApoE(141-150)-PMO; ApoE(133-150)-PMO. (C) For PMO constructs, from left to right: PMO; HA2-PMO; GALA-PMO; NLS-PMO; ApoE(141-150)-PMO; HA2-ApoE(141-150)-PMO; GALA-ApoE(141-150)-PMO; NLS-ApoE(141-150)-PMO; H4-ApoE(141-150)-PMO; A4-ApoE(141-150)-PMO. *P<0.05,**P<0.001, ***P<0.0001 cf. Untreated (control) and PMO (1 and 5 μM); #P<0.001 cf. GALA-/NLS-/H4-ApoE(141-150)-PMO (1 μM), ^<0.001 cf. ApoE(133-150)-PMO (0.5 and 1 μM), ^OP<0.001 cf. ApoE(141-150)-PMO (1 μM), ^&P<0.05 cf.
The inventors then evaluated cellular uptake and activity of these peptide-PMO conjugates in SMA Type I patient-derived fibroblasts with two copies of SMN2. Efficiency of uptake was assessed by RT-qPCR using SMN2 splice-switching for exon 7 inclusion (see FIG. 3A).
SMA Type I patient-derived fibroblasts (SMN2^+/+, GM03813, Coriell Cell Repositories) were maintained in Dulbecco's Modified Eagle's Medium (DMEM), supplemented with 10% foetal bovine serum (FBS), 1% Penicillin/Streptomycin and 1% L-glutamine (L-glu) at 37° C. Cells were plated in 6-well plates at a density of 3×10^5/well in 6 well plates one day prior to treatment with PMO and peptide-PMO conjugates. Cells used were from passage 8-22. PMO and the peptide-PMO conjugates were dissolved in nuclease-free water and diluted to appropriate concentrations in Opti-MEM reduced serum medium. Cells were treated for 4 hrs at 37° C. The transfection medium was then removed and replaced with growth medium in which the cells were incubated for 20 hrs.
Cells were washed with PBS and total cellular RNA was extracted using Trizol (TRI Reagent®, Sigma) according to the manufacturer's instructions (Life Technologies). 400 ng purified RNA was reverse transcribed into cDNA using BioRad iScript Reverse Transcription Supermix kit according to the manufacturer's instructions. The reverse transcription was performed using the Veriti Thermal Cycler (ThermoFisher Scientific) with the thermal cycling conditions: 25° C. for 5 min, 46° C. for 20 min, 95° C. for 1 min followed by a 4° C. holding period.
Quantitative PCR (20 ng cDNA/well) was carried out in a 96-well plate in triplicate using SsoAdvanced Universal SYBR Green Supermix on a Biorad CFX96 Touch™ Real-Time PCR detection system. The amplification was carried out using full-length SMN2-specific primers: Ex-6 Forward 5′-[…]-3′ (SEQ ID NO:10) and Ex7-8 reverse 5′[…]-3′ (SEQ ID NO:11). Human HPRT1 was used as the internal reference gene with forward primer sequence 5′-[…]-3′ (SEQ ID NO:12) and reverse primer sequence 5′-[…]-3′ (SEQ ID NO:13). The ΔΔCt method was used to correct the Ct values against the HPRT1 Ct values. The values obtained were normalised to the untreated control values which were set to 1. Statistical analysis was carried out using one-way ANOVA with post-hoc Bonferroni for multiple groups comparison (GraphPad Prism V.8, 2018). All data are expressed as mean±SEM from at least three independent experiments with p<0.05 considered significant.

[3] = test system: SMA patient-derived fibroblasts; experiment: Confocal fluorescence uptake of Cy5-labelled peptide-PMO conjugates in SMA fibroblasts; assay type: cell-based, human; settings: 1 μM; for intracellular fluorescence pattern: 1 hr at 37° C.; for cellular uptake on addition of endosomal escape domain HA2: 1 hr, versus counterparts without HA2
Procedure: FIG. 4. Representative confocal fluorescence microscopy images of SMA patient-derived fibroblasts treated with 1 μM of Cy5-labelled: (A) ApoE(141-150)-PMO; (B) HA2-ApoE(141-150)-PMO; (C) ApoE(133-150)-PMO; and (D) HA2-ApoE(133-150)-PMO, for 1 hr at 37° C.
SMA fibroblasts (6.0×10^4 cells/well) were plated onto a p-Slide 4 Well Ph+ Glass Bottom chamber slides precoated with poly-L-ornithine (Ibidi GmbH). After 24 hr, cells were incubated for 1 hr with Cy5-labelled peptide-PMO conjugates (1 μM or 5 μM) diluted in serum free Opti-MEM. At 10 min to end of 1 hr incubation, Hoechst (1:1000 dilution) was added to each well.

[4] = test system: SMN2; experiment: Full-length SMN2 RNA in tissues of transgenic SOD1+/- SMN2+/- mice by RT-qPCR; assay type: in vivo; settings: 8 mg/kg/week for 5 weeks, tail vein injection, 7 days after final administration, mean±SEM, versus saline-treated control
Procedure: FIG. 6. SMN upregulation in SOD1^G93A mice. A, administration regime. B, Full length (FL) SMN2 levels in brain, spinal cord (S. cord), kidney and quadriceps (Quad) as determined by RT-qPCR in untreated mice (left hand columns) and mice treated with SEQ ID NO:6-PMO conjugate (right hand columns) after administration at a dose of 8 mg/kg weekly for five weeks. *, p<0.05; **, p<0.001; ***, p<0.0001 cf. saline-treated group.
A peptide consisting of the amino acid sequence of SEQ ID NO:6 was conjugated to the PMO antisense oligonucleotide of SEQ ID NO:9 via a non-reducible thioether (thiol-maleimide) bond as described in Example 1. […] Transgenic SOD1^+/− SMN2^+/− mice (n=5) at P60 were treated with Ac-HA2-ApoE(133-150)-PMO conjugate at 8 mg/kg/week for 5 weeks via tail vein injection. Age-matched control mice (n=6) were given saline. Tissues (brain, spinal cord, kidney and quadriceps) were harvested 7 days after final administration. The level of full-length SMN2 RNA was measured using RT-qPCR as above. The level of full-length SMN2 was normalised to mouse HPRT1 with forward primer sequence 5′-[…]-3′ (SEQ ID NO:14) and reverse primer sequence 5′[…]-3′ (SEQ ID NO:15). Data were expressed as mean±SEM. The statistical significances between saline-treated and Ac-HA2-ApoE(133-150)-PMO-treated groups were determined using the Student's t test. […]

[5] = assay type: in vivo, mice; settings: 8 mg/kg; dose escalation at 5, 8 and 10 mg/kg; data not shown
[6] = intrathecal injection; cited from earlier work

Substance | effect on cell viability ([1]; at 10 μM) | effect on cell viability ([1]; up to 5 μM) | exon-7 inclusion activity, change in words ([2]; 0.5 μM and 1 μM, versus comparator) | intracellular fluorescence pattern [3] | cellular uptake on addition of endosomal escape domain HA2 [3] | level of exon-7 inclusion activity (full length SMN2/HPRT1, normalised to untreated control set to 1) ([2]; 0.5 μM) | level of exon-7 inclusion activity (full length SMN2/HPRT1, normalised to untreated control set to 1) ([2]; 1 μM) | level of full length SMN2 RNA (normalised to mouse HPRT1) ([4]; brain) | level of full length SMN2 RNA (normalised to mouse HPRT1) ([4]; spinal cord) | tolerability [5] | side effects such as postprocedural headache and backpain, share of adult patients [6]
Ac-GLFHAIAHFIHGGWH-X-LRKLRKRLLR-X-C-PMO [HA2-ApoE(141-150)-PMO] | decrease in cell viability | None of the P-PMO conjugates had a significant effect on cell viability | significant increase in the activity | higher fluorescence intensity with a more diffused pattern | significantly enhanced cellular uptake | – | – | – | – | – | –
Ac-GLFHAIAHFIHGGWH-X-LRVRLASHLRKLRKRLLR-X-C-PMO [HA2-ApoE(133-150)-PMO] | decrease in cell viability | None of the P-PMO conjugates had a significant effect on cell viability | – | higher fluorescence intensity with a more diffused pattern | significantly enhanced cellular uptake | 2.02±0.12 | 2.8±0.13 | 1.19±0.06 | 1.56±0.1 | well-tolerated without any signs of adverse effects | –
TCACTTTCATAATGCTGG (chemistry not given here) [Nusinersen, FDA-approved antisense oligonucleotide for the treatment of spinal muscular atrophy] | – | – | – | – | – | – | – | – | – | – | 32%
